Source: PubChem BioAssay AID1845206 (Molecular Pharmacology Branch, DTP, NCI, 2023)

System: NCI-H1618 multicellular tumor spheroid viability
Assay: Anticancer human tumor NCI-H1618 cell line growth inhibition;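 note: spheroids exposed to agents for 7 days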
Settings: for IC50: curve of first compound; for viability, T/C: stronger effect = lower value
How it was run: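 Complex tumor spheroids combined malignant cells with endothelial cells and mesenchymal stem cells. DNA-damaging drugs and DNA repair inhibitors were tested alone and in combination, at half-log dilutions down from clinical Cmax (top 10 microM if Cmax unknown), 0.25% DMSO final.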

## Cc1sc2c(c1C)C(c1ccc(Cl)cc1)=NC(CC(=O)Nc1ccc(O)cc1)c1nnc(C)n1-2 (stereo not given) + Cn1nnc2c(C(N)=O)ncn2c1=O
Second compound 1 µM
  IC50: 783 nM
Second compound 3.16 µM
  IC50: < 9.49 nM
Second compound 10 µM
  IC50: < 9.49 nM
Second compound 31.6 µM
  IC50: < 9.49 nM
Second compound 100 µM
  IC50: 146 nM
Second compound 1 µM, first compound 0.00949 µM
  viability, T/C: 97.7%
Second compound 1 µM, first compound 0.03 µM
  viability, T/C: 20.7%
Second compound 1 µM, first compound 0.0949 µM
  viability, T/C: 90%
Second compound 1 µM, first compound 0.3 µM
  viability, T/C: 72%
Second compound 1 µM, first compound 0.949 µM
  viability, T/C: 45.9%
Second compound 1 µM, first compound 3 µM
  viability, T/C: 20.5%
Second compound 3.16 µM, first compound 0.00949 µM
  viability, T/C: 19.5%
Second compound 3.16 µM, first compound 0.03 µM
  viability, T/C: 35.3%
Second compound 3.16 µM, first compound 0.0949 µM
  viability, T/C: 49.1%
Second compound 3.16 µM, first compound 0.3 µM
  viability, T/C: 22.8%
Second compound 3.16 µM, first compound 0.949 µM
  viability, T/C: 5.18%
Second compound 3.16 µM, first compound 3 µM
  viability, T/C: 5.41%
Second compound 10 µM, first compound 0.00949 µM
  viability, T/C: 6.33%
Second compound 10 µM, first compound 0.03 µM
  viability, T/C: 21.3%
Second compound 10 µM, first compound 0.0949 µM
  viability, T/C: 5.98%
Second compound 10 µM, first compound 0.3 µM
  viability, T/C: 18.9%
Second compound 10 µM, first compound 0.949 µM
  viability, T/C: 2.4%
Second compound 10 µM, first compound 3 µM
  viability, T/C: 1.94%
Second compound 31.6 µM, first compound 0.00949 µM
  viability, T/C: 7.34%
Second compound 31.6 µM, first compound 0.03 µM
  viability, T/C: 9.11%
Second compound 31.6 µM, first compound 0.0949 µM
  viability, T/C: 17.6%
Second compound 31.6 µM, first compound 0.3 µM
  viability, T/C: 4.34%
Second compound 31.6 µM, first compound 0.949 µM
  viability, T/C: 1.89%
Second compound 31.6 µM, first compound 3 µM
  viability, T/C: 1.29%
Second compound 100 µM, first compound 0.00949 µM
  viability, T/C: 53.6%
Second compound 100 µM, first compound 0.03 µM
  viability, T/C: 78.7%
Second compound 100 µM, first compound 0.0949 µM
  viability, T/C: 70.3%
Second compound 100 µM, first compound 0.3 µM
  viability, T/C: 20.8%
Second compound 100 µM, first compound 0.949 µM
  viability, T/C: 6.16%
Second compound 100 µM, first compound 3 µM
  viability, T/C: 0.99%

## CC(C)n1c(=O)n(C)c2cnc3cc(F)c(-c4ccc(OCCCN5CCCCC5)nc4)cc3c21 + COc1cc2c(cc1O)CCNC21CSC2c3c(OC(C)=O)c(C)c4c(c3C(COC1=O)N1C(O)C3Cc5cc(C)c(OC)c(O)c5C(C21)N3C)OCO4
Second compound 30 pM
  IC50: 7230 nM
Second compound 94.9 pM
  IC50: < 31.6 nM
Second compound 0.0003 µM
  IC50: < 31.6 nM
Second compound 0.000949 µM
  IC50: < 31.6 nM
Second compound 0.003 µM
  IC50: < 31.6 nM
Second compound 30 pM, first compound 0.0316 µM
  viability, T/C: 98.6%
Second compound 30 pM, first compound 0.1 µM
  viability, T/C: 66.3%
Second compound 30 pM, first compound 0.316 µM
  viability, T/C: 83%
Second compound 30 pM, first compound 1 µM
  viability, T/C: 103%
Second compound 30 pM, first compound 3.16 µM
  viability, T/C: 70%
Second compound 30 pM, first compound 10 µM
  viability, T/C: 42.2%
Second compound 94.9 pM, first compound 0.0316 µM
  viability, T/C: 46.2%
Second compound 94.9 pM, first compound 0.1 µM
  viability, T/C: 13.4%
Second compound 94.9 pM, first compound 0.316 µM
  viability, T/C: 36.4%
Second compound 94.9 pM, first compound 1 µM
  viability, T/C: 42.7%
Second compound 94.9 pM, first compound 3.16 µM
  viability, T/C: 34.5%
Second compound 94.9 pM, first compound 10 µM
  viability, T/C: 15.9%
Second compound 0.0003 µM, first compound 0.0316 µM
  viability, T/C: 3.13%
Second compound 0.0003 µM, first compound 0.1 µM
  viability, T/C: 2.8%
Second compound 0.0003 µM, first compound 0.316 µM
  viability, T/C: 4.96%
Second compound 0.0003 µM, first compound 1 µM
  viability, T/C: 7.62%
Second compound 0.0003 µM, first compound 3.16 µM
  viability, T/C: 9.67%
Second compound 0.0003 µM, first compound 10 µM
  viability, T/C: 7.88%
Second compound 0.000949 µM, first compound 0.0316 µM
  viability, T/C: 5.33%
Second compound 0.000949 µM, first compound 0.1 µM
  viability, T/C: 5.23%
Second compound 0.000949 µM, first compound 0.316 µM
  viability, T/C: 5.71%
Second compound 0.000949 µM, first compound 1 µM
  viability, T/C: 5.14%
Second compound 0.000949 µM, first compound 3.16 µM
  viability, T/C: 5.57%
Second compound 0.000949 µM, first compound 10 µM
  viability, T/C: 8.28%
Second compound 0.003 µM, first compound 0.0316 µM
  viability, T/C: 5.09%
Second compound 0.003 µM, first compound 0.1 µM
  viability, T/C: 4.6%
Second compound 0.003 µM, first compound 0.316 µM
  viability, T/C: 4.56%
Second compound 0.003 µM, first compound 1 µM
  viability, T/C: 5.67%
Second compound 0.003 µM, first compound 3.16 µM
  viability, T/C: 3.66%
Second compound 0.003 µM, first compound 10 µM
  viability, T/C: 5.04%
